In US8969312B2, “Low side effect pharmaceutical composition containing antituberculosis drugs” (priority 2011, dated 2015):

Experiments:
[1] = target: human liver microsomal cytochrome P450 2E1 (CYP2E1) (Homo sapiens, UniProt P05181); test: Human liver microsomal CYP2E1, chlorzoxazone 6-hydroxylation;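 also: chlorzoxazone added as substrate, 6-hydroxychlorzoxazone formation quantified by LC/MS/MS after 30 min at 37 °C with NADP+ regenerating system, compared against solvent control without test sample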
amidase = test: Mouse liver microsomal amidase, isoniazid to isonicotinic acid; format: biochemical
Description: Mouse liver microsomes were used as the source of amidase, and isoniazid was used as the amidase metabolism drugs. quantitative isoniazid was catalyzed into metabolites isonicotinic acid (INA) by amidase, and was used as the index for measurement of the amidase activity for establishment of the platform for screening in vitro amidase activity inhibitors. The HPLC system includes a Shimadzu the LC-LOAD pump, 1 Shimadzu system control and a Shimadzu autosampler (Shimadzu Scientific Instrument, Japan). A C18 column (particle size 5 μm, inner diameter of 50×4.6 mm, 25 cm) containing 70% methanol and 30% ammonium formate (50 mM, pH=2.5) of the mobile phase for HPLC separation, and the experimental steps are outlined as follows:
(2) An aliquot of 150 μL mouse liver microsomal solution was added to 100 μL isoniazid solution in 35 μL 67 mM potassium phosphate buffer solution ([…], pH=7) with a final concentration at 3 mM, and then mixed thoroughly with 15 μL amidase inhibitor (deionized water was added in the control group). (3) Incubation at 37° C. water bath for 30 minutes. (4) An aliquot of 300 μL acetonitrile (ACN) was added and mixed thoroughly, and incubated for 6 minutes. (5) An aliquot of 30 μL perchloric acid was then mixed and incubated for 6 minutes. (6) The mixture was centrifuged at 13000 g for 6 minutes. (7) After centrifugation, 100 μL of the supernatant was injected into HPLC. (8) Methanol ammonium formate (50 mM, pH=2.5)=70:30 (V/V) was selected as the mobile phase, and the flow rate was controlled at […] and detected at 270 nm UV. […] The amidase inhibition % was then calculated using the following formula: […]

[2] = Table 6, minimum tested concentration (mg/L) × volume of human liver and intestine (3 L)

Chain of human liver microsomal cytochrome P450 2E1 (CYP2E1) (P05181 whole entry): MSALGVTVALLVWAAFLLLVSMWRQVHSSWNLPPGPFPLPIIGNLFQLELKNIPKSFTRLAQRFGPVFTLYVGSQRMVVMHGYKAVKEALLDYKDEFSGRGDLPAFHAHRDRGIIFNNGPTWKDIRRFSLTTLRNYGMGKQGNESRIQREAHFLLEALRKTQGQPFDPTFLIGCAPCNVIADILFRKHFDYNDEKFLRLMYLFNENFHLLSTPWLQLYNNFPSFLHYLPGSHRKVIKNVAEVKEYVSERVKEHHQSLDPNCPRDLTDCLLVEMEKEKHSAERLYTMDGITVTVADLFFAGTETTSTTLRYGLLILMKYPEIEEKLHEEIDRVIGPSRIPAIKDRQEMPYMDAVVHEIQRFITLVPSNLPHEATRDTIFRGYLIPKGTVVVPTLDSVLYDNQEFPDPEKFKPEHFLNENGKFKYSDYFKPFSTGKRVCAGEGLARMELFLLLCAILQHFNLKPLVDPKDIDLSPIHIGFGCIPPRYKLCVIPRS

| Molecule | Minimum Effective Dose [1, 2] [mg] | Amidase inhibition (amidase; 1 uM) [%] | Amidase inhibition (amidase; 10 uM) [%] | Amidase inhibition (amidase; 100 uM) [%] | also measured |
| --- | --- | --- | --- | --- | --- |
| O=c1c(O[C@@H]2O[C@H](CO)[C@H](O)[C@H](O)[C@H]2O)c(-c2ccc(O)c(O)c2)oc2cc(O)cc(O)c12 [Hyperoside] | 25 |  |  |  |  |
| O=C(/C=C/c1ccc(O)cc1)c1ccc(O)cc1O [Isoliquritigenin] |  | −18.7 ± 26.0 | 17.7 ± 8.3 | 57.2 ± 8.5 |  |
| CCCCCCCCCCCCO [Lauryl Alcohol] |  | 2.2 ± 3.1 | −0.7 ± 1.5 | 4.1 ± 4.3 |  |
| O=C1C[C@@H](c2ccc(O[C@@H]3O[C@H](CO)[C@@H](O)[C@H](O)[C@H]3O)cc2)Oc2cc(O)ccc21 [Liquiritin] |  | 2.5 ± 2.9 | −7.5 ± 13.4 | 12.5 ± 8.3 |  |
| COc1ccc([C@@H]2CC(=O)c3c(O)cc(O[C@@H]4O[C@H](CO)[C@@H](O)[C@H](O)[C@H]4O[C@@H]4O[C@@H](C)[C@H](O)[C@@H](O)[C@H]4O)cc3O2)cc1O [Neohesperidin] | 33 |  |  |  | Inhibition of CYP 2E1 ([1]; 16.5 μM): 42.81 ± 1.75%; Inhibition of CYP 2E1 ([1]; 33 μM): 48.96 ± 2.37%; Inhibition of CYP 2E1 ([1]; 66 μM): 58.70 ± 1.06% |
| CC1(C)CC[C@]2(C(=O)O)CC[C@]3(C)C(=CC[C@@H]4[C@@]5(C)CC[C@H](O)C(C)(C)[C@@H]5CC[C@]43C)[C@@H]2C1 [Oleanolic Acid] |  | 20.3 ± 5.2 | 14.8 ± 3.4 | 24.5 ± 4.0 |  |
| COc1ccc([C@@H]2CC(=O)c3c(O)cc(O[C@@H]4O[C@H](CO)[C@@H](O)[C@H](O)[C@H]4O[C@@H]4O[C@@H](C)[C@H](O)[C@@H](O)[C@H]4O)cc3O2)cc1 [Poncirin] |  | 10.8 ± 3.8 | 8.1 ± 11.7 | 17.3 ± 5.8 |  |
| C[C@@H]1O[C@@H](Oc2c(-c3ccc(O)c(O)c3)oc3cc(O)cc(O)c3c2=O)[C@H](O)[C@H](O)[C@H]1O [Quercitrin] | 24 |  |  |  |  |
| C[C@@H]1O[C@@H](OC[C@H]2O[C@@H](Oc3c(-c4ccc(O)c(O)c4)oc4cc(O)cc(O)c4c3=O)[C@H](O)[C@@H](O)[C@@H]2O)[C@H](O)[C@H](O)[C@H]1O [Rutin] | 33 |  |  |  |  |
| COc1ccc(-c2cc(=O)c3c(O)cc(O)c(-c4cc(-c5cc(=O)c6c(O)cc(OC)cc6o5)ccc4OC)c3o2)cc1 [Sciadopitysin] |  | 10.3 ± 3.8 | 20.7 ± 6.0 | 20.6 ± 19.3 |  |
| COc1cc(C2Oc3cc([C@H]4Oc5cc(O)cc(O)c5C(=O)[C@@H]4O)ccc3OC2CO)ccc1O (stereo partly drawn) [Silybin] | 26 |  |  |  |  |
| COc1ccc(-c2cc(=O)c3c(OC)c(OC)c(OC)cc3o2)cc1OC [Sinensetin] |  | −0.8 ± 3.0 | 6.6 ± 0.5 | 9.7 ± 0.9 |  |
| O=C([O-])c1ccccc1.[Na+] [Sodium benzoate] |  |  |  |  | Inhibition of CYP 2E1 ([1]; 0.08% (w/v)): 7.8 ± 4.1%; Inhibition of CYP 2E1 ([1]; 0.167% (w/v)): 15.8 ± 0.9%; Minimum Effective Dose ([1]; Table 7): 9 mg; Inhibition of CYP 2E1 ([1]; […] (w/v)): 7.1 ± 2.0% |
| O=S(=O)([O-])NC1CCCCC1.[Na+] [Sodium cyclamate] |  |  |  |  | Inhibition of CYP 2E1 ([1]; 16.5 μM): 9.4 ± 2.7%; Inhibition of CYP 2E1 ([1]; 33 μM): 1.7 ± 4.7%; Inhibition of CYP 2E1 ([1]; 66 μM): 9.1 ± 2.6% |
| O=C/C=C/c1ccccc1 [Trans-Cinnamaldehyde] | 7 |  |  |  |  |
| O=c1cc(-c2ccc(O)cc2)oc2c([C@@H]3O[C@H](CO)[C@@H](O)[C@H](O)[C@H]3O)c(O)cc(O)c12 [Vitexin] | 24 |  |  |  |  |
| O=c1cc(-c2ccccc2)oc2c1ccc1ccccc12 [α-Naphthoflavone] |  | 7.3 ± 7.9 | 19.3 ± 3.7 | 36.9 ± 2.7 |  |
| (−)-Epicatechin-3-gallate | 24 |  |  |  | Inhibition of CYP 2E1 ([1]; 16.5 μM): 30.31 ± 1.27%; Inhibition of CYP 2E1 ([1]; 33 μM): 34.84 ± 1.72%; Inhibition of CYP 2E1 ([1]; 66 μM): 42.92 ± 0.65% |
| Magnesium stearate |  |  |  |  | Inhibition of CYP 2E1 ([1]; 16.5 μM): 2.0 ± 1.0%; Inhibition of CYP 2E1 ([1]; 33 μM): 3.0 ± 0.7%; Inhibition of CYP 2E1 ([1]; 66 μM): 5.0 ± 1.6% |
